Source: ChEMBL document CHEMBL5257135, “Synthesis of Artesunic Acid-Coumarin Hybrids as Potential Antimelanoma Agents” (ACS Med Chem Lett, 2023)
The source made the active and inactive calls. The rule behind the calls is not given here.

Columns and labels:
[1] = Cytotoxicity against human C3PV cells assessed as reduction in cell viability incubated for 24 hrs by MTT assay; assay type: toxicity, cell-based; details: for IC50 at 24 h: human, C3PV cells; for IC50: c3pv
SK-MEL-28 [2] = experiment: Anticancer activity against human SK-MEL-28 cells assessed as reduction in cell viability incubated for 24 hrs by MTT assay; assay type: functional, cell-based; details: SK-MEL-28, 24 h
SK-MEL3 [3] = experiment: Anticancer activity against human SK-MEL3 cells assessed as reduction in cell viability incubated for 24 hrs by MTT assay; assay type: functional, cell-based; details: SK-MEL3, 24 h
[4] = Selectivity index, ratio of IC50 for cytotoxicity against human C3PV cells to IC50 for anticancer activity against human SK-MEL3 cells; assay type: toxicity, cell-based; details: C3PV cells and SK-MEL3 cells, read-out: Ratio IC50
SK-MEL3 [5] = experiment: Anticancer activity against human SK-MEL3 cells assessed as reduction in cell viability incubated for 24 hrs in presence of Artesunic acid by MTT assay; assay type: functional, cell-based; details: SK-MEL3, 24 h
[6] = Drug localization in human SK-MEL3 cell nucleus incubated for 24 hrs by propidium iodide staining based Confocal microscopy; assay type: ADME, subcellular; details: sk-mel3, 24 h
SK-MEL3 [7] = experiment: Anticancer activity against human SK-MEL3 cells assessed as reduction in cell viability incubated for 24 hrs in presence of deferoxamine by MTT assay; assay type: functional, cell-based; details: SK-MEL3, 24 h
SK-MEL3 [8] = experiment: Induction of apoptosis in human SK-MEL3 cells assessed as dead cells at 0.015 uM by fluorescein diacetate, propidium iodide, and Hoechst staining based confocal microscopy; assay type: functional, cell-based
SK-MEL3 [9] = experiment: Antiproliferative activity against human SK-MEL3 cells assessed as reduction in cell proliferation at 0.015 uM to incubated for 24 hrs by trypan blue exclusion assay; assay type: functional, cell-based
SK-MEL-28 [10] = experiment: Antiproliferative activity against human SK-MEL-28 cells assessed as reduction in cell proliferation at 0.015 uM to incubated for 24 hrs by trypan blue exclusion assay; assay type: functional, cell-based
C3PV [11] = experiment: Induction of apoptosis in human C3PV cells assessed as dead cells at 0.015 uM by fluorescein diacetate, propidium iodide, and Hoechst staining based confocal microscopy; assay type: functional, cell-based
[12] = Cytotoxicity against human C3PV cells assessed as reduction in cell proliferation at 0.015 uM to incubated for 24 hrs by trypan blue exclusion assay; assay type: toxicity, cell-based
SK-MEL-28 [13] = experiment: Induction of apoptosis in human SK-MEL-28 cells assessed as dead cells at 0.015 uM by fluorescein diacetate, propidium iodide, and Hoechst staining based confocal microscopy; assay type: functional, cell-based
SK-MEL-28 [14] = experiment: Antiproliferative activity against human SK-MEL-28 cells assessed as reduction in cell proliferation at 0.05 uM to incubated for 24 hrs by trypan blue exclusion assay; assay type: functional, cell-based
SK-MEL-28 [15] = experiment: Induction of apoptosis in human SK-MEL-28 cells assessed as dead cells at 0.05 uM by fluorescein diacetate, propidium iodide, and Hoechst staining based confocal microscopy; assay type: functional, cell-based
SK-MEL3 [16] = experiment: Induction of apoptosis in human SK-MEL3 cells assessed as dead cells at 0.05 uM by fluorescein diacetate, propidium iodide, and Hoechst staining based confocal microscopy; assay type: functional, cell-based
C3PV [17] = experiment: Induction of apoptosis in human C3PV cells assessed as dead cells at 0.05 uM by fluorescein diacetate, propidium iodide, and Hoechst staining based confocal microscopy; assay type: functional, cell-based
[18] = Cytotoxicity against human C3PV cells assessed as reduction in cell proliferation at 0.05 uM to incubated for 24 hrs by trypan blue exclusion assay; assay type: toxicity, cell-based
SK-MEL3 [19] = experiment: Antiproliferative activity against human SK-MEL3 cells assessed as reduction in cell proliferation at 0.05 uM to incubated for 24 hrs by trypan blue exclusion assay; assay type: functional, cell-based

SMILES | IC50 at 24 h [1] [µM] | IC50 (SK-MEL-28 [2]) [µM] | IC50 (SK-MEL3 [3]) [µM] | selectivity ratio [4] | also measured
Cc1cc(=O)oc2cc(O)ccc12 [HYMECROMONE] | 7 | 0.58 | 1.6 | 4.37 | –
O=c1ccc2ccc(O)cc2o1 [UMBELLIFERONE] | 20.9 | 0.48 | 2.1 | 9.9 | IC50 (SK-MEL3 [5]): 1.6 µM
Cc1cc(=O)oc2cc(OC(=O)CCC(=O)O[C@@H]3O[C@@H]4C[C@]5(C)CC[C@H]6[C@H](C)CC[C@@H]([C@H]3C)[C@@]46OO5)ccc12 | 0.66 | 13.5 | 2.6 | 0.25 | –
O=c1ccc2cc(O)c(O)cc2o1 [ESCULETIN] | 25.8 | 0.96 | 1.7 | 15.2 | –
COc1cc2ccc(=O)oc2cc1OC(=O)CCC(=O)O[C@@H]1O[C@@H]2C[C@]3(C)CC[C@H]4[C@H](C)CC[C@@H]([C@H]1C)[C@@]24OO3 | 3.05 | 132 | 4.1 | 0.74 | –
O=c1ccc2cc(O)ccc2o1 [6-HYDROXYCOUMARIN] | 2.95 | 0.45 | 1.85 | 1.6 | IC50 (SK-MEL3 [5]): 1.14 µM
C[C@H]1[C@H](OC(=O)CCC(=O)Oc2cc3ccc(=O)oc3cc2O)O[C@@H]2C[C@]3(C)CC[C@H]4[C@H](C)CC[C@@H]1[C@@]24OO3 | – | 97.9 | 1.9 | 361 | IC50 [1]: 686 µM
Nc1ccc2c(C(F)(F)F)cc(=O)oc2c1 | 27.4 | 0.98 | 0.93 | 29.4 | Drug uptake [6]: Active
C[C@H]1[C@H](OC(=O)CCC(=O)Oc2cc3ccccc3oc2=O)O[C@@H]2C[C@]3(C)CC[C@H]4[C@H](C)CC[C@@H]1[C@@]24OO3 | 5.64 | 38 | 1 | 5.64 | –
C[C@H]1[C@H](OC(=O)CCC(=O)Oc2ccc3oc(=O)ccc3c2)O[C@@H]2C[C@]3(C)CC[C@H]4[C@H](C)CC[C@@H]1[C@@]24OO3 | 132 | 576 | 0.015 | 8810 | IC50 (SK-MEL3 [7]): 0.001 µM; Activity (SK-MEL3 [8]): Active; Activity (SK-MEL3 [9]): Active; Activity (SK-MEL-28 [10]): inactive; Activity (C3PV [11]): inactive; Activity [12]: Non-Toxic; Activity (SK-MEL-28 [13]): inactive
C[C@H]1[C@H](OC(=O)CCC(=O)Nc2ccc3c(C(F)(F)F)cc(=O)oc3c2)O[C@@H]2C[C@]3(C)CC[C@H]4[C@H](C)CC[C@@H]1[C@@]24OO3 | 0.21 | 1090 | 1.3 | 0.16 | Drug uptake [6]: Active
COc1cc2ccc(=O)oc2cc1O [SCOPOLETIN] | 1.6 | 3.43 | 1.5 | 1.1 | –
O=c1cc(O)c2ccccc2o1 [4-HYDROXYCOUMARINS] | 0.6 | 1.3 | 2.1 | 0.29 | –
O=c1oc2ccccc2cc1O [3-HYDROXYCOUMARIN] | 12.5 | 1.2 | 6.8 | 1.8 | –
C[C@H]1[C@H](OC(=O)CCC(=O)Oc2ccc3c(C(F)(F)F)cc(=O)oc3c2)O[C@@H]2C[C@]3(C)CC[C@H]4[C@H](C)CC[C@@H]1[C@@]24OO3 | – | 6.84 | 3.6 | 294 | IC50 [1]: 1060 µM
CC(=O)O[C@H]1C(=O)[C@@]2(C)[C@H]([C@H](OC(=O)c3ccccc3)[C@]3(O)C[C@H](OC(=O)[C@H](O)[C@@H](NC(=O)c4ccccc4)c4ccccc4)C(C)=C1C3(C)C)[C@]1(OC(C)=O)CO[C@@H]1C[C@@H]2O [PACLITAXEL] | 78.9 | 1.07 | 4.73 | 16.7 | –
C[C@H]1[C@H](OC(=O)CCC(=O)Oc2ccc3ccc(=O)oc3c2)O[C@@H]2C[C@]3(C)CC[C@H]4[C@H](C)CC[C@@H]1[C@@]24OO3 | 216 | 2.2 | 0.05 | 4320 | IC50 (SK-MEL3 [7]): 0.118 µM; Activity (SK-MEL-28 [14]): inactive; Activity (SK-MEL-28 [15]): Active; Activity (SK-MEL3 [16]): Active; Activity (C3PV [17]): inactive; Activity [18]: Non-Toxic; Activity (SK-MEL3 [19]): Active
C[C@H]1[C@H](OC(=O)CCC(=O)Oc2cc(=O)oc3ccccc23)O[C@@H]2C[C@]3(C)CC[C@H]4[C@H](C)CC[C@@H]1[C@@]24OO3 | 321 | 72.8 | 2.7 | 119 | –
O=c1cc(C(F)(F)F)c2ccc(O)cc2o1 | 2.5 | 1.1 | 0.58 | 4.3 | –
